Source: ChEMBL document CHEMBL1201862, “PubChem BioAssay data set” (2004)
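48-hour exposure; five concentrations; linearly interpolated endpoints. GI50 marks 50% less growth.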 Calls of active or inactive are those of the source. No stated cut-off is given here; in the data, active = GI50 up to about 1.1 µM and inactive = higher.

Experiments:
Experiment in all cases: NCI tumour cell line growth inhibition, 48 h
[1] = test system: U-251
[2] = test system: HT-29
[3] = test system: ACHN
[4] = test system: UO-31
[5] = test system: TK-10
[6] = test system: HCT-15
[7] = test system: A549
[8] = test system: NCI/ADR-RES
[9] = test system: SF-268
[10] = test system: SK-MEL-5
[11] = test system: T47D
[12] = test system: MDA-MB-231
[13] = test system: UACC-62
[14] = test system: EKVX
[15] = test system: OVCAR-4
[16] = test system: RPMI-8226
[17] = test system: MDA-MB-435
[18] = test system: M14
[19] = test system: NCI-H460
[20] = test system: RXF 393

CCCCCCC(C)CC(CCCCCC)NCCOC(=O)c1ccc([N+](=O)[O-])cc1 (configuration not stated)
GI50 [1]: 11.1 µM (inactive) | GI50 [2]: 4.04 µM (inactive) | GI50 [3]: 13.3 µM (inactive) | GI50 [4]: 10.4 µM (inactive) | GI50 [5]: 10.6 µM (inactive) | GI50 [6]: 10.1 µM | GI50 [7]: 15.1 µM (inactive) | GI50 [8]: 13.4 µM (inactive) | GI50 [9]: 13.8 µM (inactive) | GI50 [10]: 9.68 µM (inactive) | GI50 [11]: 10.7 µM (inactive) | GI50 [12]: 6.71 µM (inactive) | GI50 [13]: 13 µM (inactive) | GI50 [14]: 8.71 µM (inactive) | GI50 [15]: 11.5 µM (inactive)

O=[N+]([O-])c1ccc(N/N=C2\C=CCCC2)c([N+](=O)[O-])c1
GI50 [1]: > 100 µM (inactive) | GI50 [16]: > 100 µM (inactive) | GI50 [2]: > 100 µM (inactive) | GI50 [3]: 81.8 µM (inactive) | GI50 [4]: 39 µM (inactive) | GI50 [5]: > 100 µM (inactive) | GI50 [6]: > 100 µM | GI50 [17]: > 100 µM (inactive) | GI50 [7]: > 100 µM (inactive) | GI50 [8]: > 100 µM (inactive) | GI50 [9]: > 100 µM (inactive) | GI50 [10]: > 100 µM (inactive) | GI50 [11]: > 100 µM (inactive) | GI50 [18]: > 100 µM (inactive) | GI50 [19]: > 100 µM (inactive) | GI50 [13]: > 100 µM (inactive) | GI50 [14]: > 100 µM (inactive) | GI50 [15]: > 100 µM (inactive)

CCOC(=O)c1c(C)noc1/N=N/N(CCO)CCO
GI50 [20]: 15.1 µM (inactive) | GI50 [1]: 28.4 µM (inactive) | GI50 [2]: 33.4 µM (inactive) | GI50 [3]: 29 µM (inactive) | GI50 [4]: 25.5 µM (inactive) | GI50 [5]: 56.1 µM (inactive) | GI50 [6]: 41.5 µM | GI50 [17]: 34 µM (inactive) | GI50 [7]: 36.8 µM (inactive) | GI50 [8]: 35.4 µM (inactive) | GI50 [9]: 54.3 µM (inactive) | GI50 [10]: 15.7 µM (inactive) | GI50 [11]: 10.8 µM (inactive) | GI50 [12]: 38.9 µM (inactive) | GI50 [18]: 49.5 µM (inactive) | GI50 [19]: 27.9 µM (inactive) | GI50 [13]: 23.9 µM (inactive) | GI50 [14]: 39.9 µM (inactive) | GI50 [15]: 30.2 µM (inactive)

CC(C)Oc1c(C2(c3ccccc3O)SCCCS2)c(=O)c1=O
GI50 [20]: 75.9 µM (inactive) | GI50 [1]: > 100 µM (inactive) | GI50 [2]: > 100 µM (inactive) | GI50 [3]: > 100 µM (inactive) | GI50 [4]: 47.9 µM (inactive) | GI50 [5]: > 100 µM (inactive) | GI50 [6]: > 100 µM | GI50 [17]: > 100 µM (inactive) | GI50 [7]: > 100 µM (inactive) | GI50 [8]: > 100 µM (inactive) | GI50 [9]: > 100 µM (inactive) | GI50 [10]: > 100 µM (inactive) | GI50 [11]: 38.9 µM (inactive) | GI50 [12]: 69.2 µM (inactive) | GI50 [18]: > 100 µM (inactive) | GI50 [19]: > 100 µM (inactive) | GI50 [13]: 98.6 µM (inactive) | GI50 [14]: 55.5 µM (inactive) | GI50 [15]: > 100 µM (inactive)

C[C@H](C/C=C/C(C)(C)O)[C@H]1CC[C@@]2(C)[C@@H]3CC[C@H]4C(C)(C)[C@@H](O)CC[C@@]45C[C@@]35CC[C@]12C
GI50 [1]: 17.4 µM (inactive) | GI50 [16]: 15.8 µM (inactive) | GI50 [2]: 26 µM (inactive) | GI50 [3]: 6.35 µM (inactive) | GI50 [4]: 23.3 µM (inactive) | GI50 [5]: 13 µM (inactive) | GI50 [6]: 17.1 µM | GI50 [17]: 20.5 µM (inactive) | GI50 [7]: 14.7 µM (inactive) | GI50 [8]: 5.14 µM (inactive) | GI50 [9]: 1.94 µM (inactive) | GI50 [11]: 27 µM (inactive) | GI50 [12]: 15.4 µM (inactive) | GI50 [18]: 17.8 µM (inactive) | GI50 [19]: 23 µM (inactive) | GI50 [13]: 26.1 µM (inactive) | GI50 [14]: 14.1 µM (inactive) | GI50 [15]: 16.9 µM (inactive)

O=c1n(/N=C/c2ccccc2)c(=O)n2n1C1C=CC2CC1
GI50 [1]: > 100 µM (inactive) | GI50 [16]: > 100 µM (inactive) | GI50 [2]: > 100 µM (inactive) | GI50 [3]: > 100 µM (inactive) | GI50 [4]: > 100 µM (inactive) | GI50 [5]: > 100 µM (inactive) | GI50 [6]: > 100 µM | GI50 [17]: > 100 µM (inactive) | GI50 [7]: > 100 µM (inactive) | GI50 [8]: > 100 µM (inactive) | GI50 [9]: > 100 µM (inactive) | GI50 [10]: > 100 µM (inactive) | GI50 [11]: > 100 µM (inactive) | GI50 [12]: > 100 µM (inactive) | GI50 [18]: > 100 µM (inactive) | GI50 [19]: > 100 µM (inactive) | GI50 [13]: > 100 µM (inactive) | GI50 [14]: > 100 µM (inactive)

c1ccc2c(Cc3nnc4sc(SSc5nn6c(Cc7c[nH]c8ccccc78)nnc6s5)nn34)c[nH]c2c1
GI50 [20]: 18.8 µM (inactive) | GI50 [1]: 21.7 µM (inactive) | GI50 [2]: 22.5 µM (inactive) | GI50 [3]: 26.4 µM (inactive) | GI50 [4]: 14.5 µM (inactive) | GI50 [5]: 38.7 µM (inactive) | GI50 [6]: 21.3 µM | GI50 [17]: 19 µM (inactive) | GI50 [7]: 28.8 µM (inactive) | GI50 [8]: 20.3 µM (inactive) | GI50 [9]: 21.8 µM (inactive) | GI50 [10]: 11.2 µM (inactive) | GI50 [11]: 23.2 µM (inactive) | GI50 [18]: 18.5 µM (inactive) | GI50 [19]: 30.4 µM (inactive) | GI50 [13]: 16 µM (inactive) | GI50 [14]: 23 µM (inactive) | GI50 [15]: 58.1 µM (inactive)

CNC1C(O)C(OC2C(N)CC(N)C(OC3OC(CN)=CCC3N)C2O)OCC1(C)O (configuration not stated)
GI50 [1]: > 100 µM (inactive) | GI50 [16]: > 100 µM (inactive) | GI50 [2]: > 100 µM (inactive) | GI50 [3]: > 100 µM (inactive) | GI50 [4]: > 100 µM (inactive) | GI50 [6]: > 100 µM | GI50 [17]: > 100 µM (inactive) | GI50 [7]: > 100 µM (inactive) | GI50 [8]: > 100 µM (inactive) | GI50 [9]: > 100 µM (inactive) | GI50 [10]: > 100 µM (inactive) | GI50 [11]: > 100 µM (inactive) | GI50 [12]: > 100 µM (inactive) | GI50 [18]: > 100 µM (inactive) | GI50 [19]: > 100 µM (inactive) | GI50 [13]: > 100 µM (inactive) | GI50 [14]: > 100 µM (inactive)
